Measurements taken from patent US20110212968A1, “PHENETHYLAMIDE DERIVATIVES AND THEIR HETEROCYCLIC ANALOGUES” (priority 2008, published 2011).
pIC50: −log10 of the molar value.

Tests used:
human orexin-1 receptor = biological target: T1, human orexin-1 receptor (Homo sapiens, UniProt O43613); assay: Intracellular calcium measurement (FLIPR Tetra), orexin receptor antagonistic activity, OX1; assay type: cell-based; settings: CHO cells expressing human orexin-1 receptor, 3 nM orexin-A, conditions B
T1 construct: expressed in transfected cells; host or cells: CHO (Chinese hamster ovary) cells, kept under G418 selection
T1 sequence (O43613 1-425): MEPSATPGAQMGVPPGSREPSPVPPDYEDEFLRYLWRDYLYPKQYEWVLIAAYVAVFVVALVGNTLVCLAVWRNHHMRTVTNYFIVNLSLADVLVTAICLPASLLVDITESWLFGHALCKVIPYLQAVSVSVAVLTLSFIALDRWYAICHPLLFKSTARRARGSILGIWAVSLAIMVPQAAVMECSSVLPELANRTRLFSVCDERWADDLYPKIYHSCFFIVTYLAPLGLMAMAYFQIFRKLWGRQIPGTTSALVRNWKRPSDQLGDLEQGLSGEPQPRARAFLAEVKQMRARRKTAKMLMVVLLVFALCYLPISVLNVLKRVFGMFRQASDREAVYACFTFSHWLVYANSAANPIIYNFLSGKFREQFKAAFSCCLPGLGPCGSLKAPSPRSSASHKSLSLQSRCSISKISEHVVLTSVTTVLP
Procedure, shortened: (§1)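 Recombinant CHO cells expressing human OX1 or OX2, loaded with fluo-4 AM plus probenecid, were preincubated with antagonist 10 min, then stimulated with 3 nM human orexin-A. Peak fluorescence was compared with vehicle; IC50 derived, sometimes normalized to an on-plate reference compound; two pipetting/cell-splitting conditions were used.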

human orexin-2 receptor = biological target: T2, human orexin-2 receptor (Homo sapiens, UniProt O43614); assay: Intracellular calcium measurement (FLIPR Tetra), orexin receptor antagonistic activity, OX2; assay type: cell-based; settings: CHO cells expressing human orexin-2 receptor, 3 nM orexin-A, conditions B
T2 construct: expressed in transfected cells; host or cells: CHO (Chinese hamster ovary) cells, kept under G418 selection
T2 sequence (O43614 1-444): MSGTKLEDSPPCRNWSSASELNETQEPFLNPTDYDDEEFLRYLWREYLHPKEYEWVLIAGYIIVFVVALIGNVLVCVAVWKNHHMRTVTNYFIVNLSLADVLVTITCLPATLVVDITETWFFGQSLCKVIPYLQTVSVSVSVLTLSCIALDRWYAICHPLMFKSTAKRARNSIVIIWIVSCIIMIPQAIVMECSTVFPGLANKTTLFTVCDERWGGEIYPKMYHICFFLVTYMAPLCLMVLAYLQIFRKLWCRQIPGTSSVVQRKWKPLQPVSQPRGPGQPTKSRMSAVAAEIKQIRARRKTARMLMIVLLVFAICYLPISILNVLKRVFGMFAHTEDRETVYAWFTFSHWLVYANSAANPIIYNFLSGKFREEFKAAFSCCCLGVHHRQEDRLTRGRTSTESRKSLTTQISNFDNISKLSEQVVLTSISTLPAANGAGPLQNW
Procedure, shortened: as §1

[1] = normalized (*) using IC50 of on-plate reference compound

| SMILES | pIC50 (human orexin-1 receptor; [1]) | pIC50 (human orexin-2 receptor; [1]) | pIC50 (human orexin-1 receptor) | pIC50 (human orexin-2 receptor) |
| --- | --- | --- | --- | --- |
| Cc1ccc2[nH]cc(CCN(CC3CC3)C(=O)c3nccnc3-c3ccccc3)c2c1 [Example 324, 3-Phenyl-pyrazine-2-carboxylic acid cyclopropylmethyl-[2-(5-methyl-1H-indol-3-yl)-ethyl]-amide] | 7.11 | 8.10 |  |  |
| Cc1cccc2c(CCN(CC3CC3)C(=O)c3nccnc3-c3ccccc3)c[nH]c12 [Example 326, 3-Phenyl-pyrazine-2-carboxylic acid cyclopropylmethyl-[2-(7-methyl-1H-indol-3-yl)-ethyl]-amide] | 7.12 | 8.10 |  |  |
| Cc1ccc(-c2nccnc2C(=O)N(CCc2cn(C)c3ccccc23)CC2CC2)cc1C [Example 330, 3-(3,4-Dimethyl-phenyl)-pyrazine-2-carboxylic acid cyclopropylmethyl-[2-(1-methyl-1H-indol-3-yl)-ethyl]-amide] | 7.74 | 8.10 |  |  |
| Cc1ccc(-c2nccnc2C(=O)N(CCc2c[nH]c3cc(Cl)ccc23)CC2CC2)cc1C [Example 331, 3-(3,4-Dimethyl-phenyl)-pyrazine-2-carboxylic acid [2-(6-chloro-1H-indol-3-yl)-ethyl]-cyclopropylmethyl-amide] | 7.21 | 7.66 |  |  |
| Cc1ccc(-c2nccnc2C(=O)N(CCc2c[nH]c3c(C)cccc23)CC2CC2)cc1C [Example 337, 3-(3,4-Dimethyl-phenyl)-pyrazine-2-carboxylic acid cyclopropylmethyl-[2-(7-methyl-1H-indol-3-yl)-ethyl]-amide] | 7.80 | 8.30 |  |  |
| COc1ccc(-c2sc(C)nc2C(=O)N(CCc2c[nH]c3cc(F)ccc23)CC2CC2)cn1 [Example 350, 5-(6-Methoxy-pyridin-3-yl)-2-methyl-thiazole-4-carboxylic acid cyclopropylmethyl-[2-(6-fluoro-1H-indol-3-yl)-ethyl]-amide] | 8.40 | 7.77 |  |  |
| Cc1ccc(-c2nccnc2C(=O)N(CCc2nc3cc(C)c(C)cc3[nH]2)CC2CC2)cc1C [Example 374, 3-(3,4-Dimethyl-phenyl)-pyrazine-2-carboxylic acid cyclopropylmethyl-[2-(5,6-dimethyl-1H-benzoimidazol-2-yl)-ethyl]-amide] | 6.99 | 7.46 |  |  |
| COc1cccc(-c2cnccc2C(=O)N(CCc2ccc(OC)c(OC)c2)CC2CC2)c1 [Example 389, N-Cyclopropylmethyl-N-[2-(3,4-dimethoxy-phenyl)-ethyl]-3-(3-methoxy-phenyl)-isonicotinamide] |  |  | 6.55 | 8.22 |
| COc1ccc(CCN(CC2CC2)C(=O)c2ncccc2-c2cccc(C)c2)cc1OC [Example 390, 3-m-Tolyl-pyridine-2-carboxylic acid cyclopropylmethyl-[2-(3,4-dimethoxy-phenyl)-ethyl]-amide] |  |  | 6.74 | 8.40 |
| COc1ccc(CCN(CC2CC2)C(=O)c2ncccc2-c2ccc(C)cc2)cc1OC [Example 391] |  |  | 6.41 | 8.40 |
| COc1cccc(-c2cccnc2C(=O)N(CCc2ccc(OC)c(OC)c2)CC2CC2)c1 [Example 393, 3-(3-Methoxy-phenyl)-pyridine-2-carboxylic acid cyclopropyl-methyl-[2-(3,4-dimethoxy-phenyl)-ethyl]-amide] |  |  | 6.97 | 8.52 |
| COc1ccc(CCN(CC2CC2)C(=O)c2cccnc2-c2cccc(C)c2)cc1OC [Example 394, N-Cyclopropylmethyl-N-[2-(3,4-dimethoxy-phenyl)-ethyl]-2-m-tolyl-nicotinamide] |  |  | 6.81 | 8.40 |
| COc1ccc(CCN(CC2CC2)C(=O)c2cccnc2-c2ccc(C)cc2)cc1OC [Example 395, N-Cyclopropylmethyl-N-[2-(3,4-dimethoxy-phenyl)-ethyl]-2-p-tolyl-nicotinamide] |  |  | 6.54 | 8.00 |
| COc1ccc(-c2cccnc2C(=O)N(CCc2c[nH]c3ccc(F)cc23)CC2CC2)cn1 [Example 400, 6′-Methoxy-[3,3′]bipyridinyl-2-carboxylic acid cyclopropylmethyl-[2-(5-fluoro-1H-indol-3-yl)-ethyl]-amide] | 7.21 | 7.96 |  |  |

Now from value to molecule:

| pIC50 (human orexin-1 receptor; [1]) | pIC50 (human orexin-2 receptor; [1]) | pIC50 (human orexin-1 receptor) | pIC50 (human orexin-2 receptor) | SMILES |
| --- | --- | --- | --- | --- |
| 6.72 | 7.62 |  |  | COc1ccc2[nH]cc(CCN(CC3CC3)C(=O)c3nccnc3-c3ccccc3)c2c1 [Example 322, 3-Phenyl-pyrazine-2-carboxylic acid cyclopropylmethyl-[2-(5-methoxy-1H-indol-3-yl)-ethyl]-amide] |
| 7.00 | 7.28 |  |  | Cc1ccc(-c2nccnc2C(=O)N(CCc2c[nH]c3c(F)cccc23)CC2CC2)cc1C [Example 340, 3-(3,4-Dimethyl-phenyl)-pyrazine-2-carboxylic acid cyclopropylmethyl-[2-(7-fluoro-1H-indol-3-yl)-ethyl]-amide] |
| 7.74 | 7.44 |  |  | COc1ccc(-c2sc(C)nc2C(=O)N(CCc2cn(C)c3ccccc23)CC2CC2)cn1 [Example 341, 5-(6-Methoxy-pyridin-3-yl)-2-methyl-thiazole-4-carboxylic acid cyclopropylmethyl-[2-(1-methyl-1H-indol-3-yl)-ethyl]-amide] |
| 7.70 | 7.43 |  |  | COc1ccc(-c2cccnc2C(=O)N(CCc2cn(C)c3ccccc23)CC2CC2)cn1 [Example 352, 6′-Methoxy-[3,3′]bipyridinyl-2-carboxylic acid cyclopropylmethyl-[2-(1-methyl-1H-indol-3-yl)-ethyl]-amide] |
| 7.06 | 7.64 |  |  | COc1ccc(-c2cccnc2C(=O)N(CCc2c[nH]c3cc(Cl)ccc23)CC2CC2)cn1 [Example 353] |
| 7.85 | 7.52 |  |  | COc1ccc(-c2cccnc2C(=O)N(CCc2c[nH]c3ccc(C)cc23)CC2CC2)cn1 [Example 357] |
| 7.46 | 7.22 |  |  | COc1ccc(-c2cccnc2C(=O)N(CCc2c[nH]c3cc(F)ccc23)CC2CC2)cn1 [Example 361] |
| 5.73 | 7.05 |  |  | COc1ccc2nc(CCN(CC3CC3)C(=O)c3ncccc3-c3ccc(OC)nc3)[nH]c2c1 [Example 371, 6′-Methoxy-[3,3′]bipyridinyl-2-carboxylic acid cyclopropylmethyl-[2-(6-methoxy-1H-benzoimidazol-2-yl)-ethyl]-amide] |
| 6.94 | 6.58 |  |  | Cc1ccc(-c2sc(N(C)C)nc2C(=O)N(CCc2nc3cc(C)c(C)cc3[nH]2)CC2CC2)cc1C [Example 377, 2-Dimethylamino-5-(3,4-dimethyl-phenyl)-thiazole-4-carboxylic acid cyclopropylmethyl-[2-(5,6-dimethyl-1H-benzoimidazol-2-yl)-ethyl]-amide] |
| 6.37 | 7.92 |  |  | COc1ccc(-c2sc(C)nc2C(=O)N(CCc2c[nH]c3cc4c(cc23)OCO4)CC2CC2)cn1 [Example 382, 5-(6-Methoxy-pyridin-3-yl)-2-methyl-thiazole-4-carboxylic acid cyclopropylmethyl-[2-(5H-[1,3]dioxolo[4,5-f]indol-7-yl)-ethyl]-amide] |
|  |  | 6.63 | 8.30 | COc1ccc(CCN(CC2CC2)C(=O)c2ccncc2-c2cccc(C)c2)cc1OC [Example 386, N-Cyclopropylmethyl-N-[2-(3,4-dimethoxy-phenyl)-ethyl]-3-m-tolyl-isonicotinamide] |
|  |  | 6.58 | 8.15 | COc1cccc(-c2ncccc2C(=O)N(CCc2ccc(OC)c(OC)c2)CC2CC2)c1 [Example 397, N-Cyclopropylmethyl-N-[2-(3,4-dimethoxy-phenyl)-ethyl]-2-(3-methoxy-phenyl)-nicotinamide] |
| 6.15 | 7.14 |  |  | Cc1cncc(-c2cccnc2C(=O)N(CCc2c[nH]c3ccc(F)cc23)CC2CC2)c1 [Example 402, 5′-Methyl-[3,3′]bipyridinyl-2-carboxylic acid cyclopropylmethyl-[2-(5-fluoro-1H-indol-3-yl)-ethyl]-amide] |
| 5.42 | 6.64 |  |  | O=C(c1ncccc1-c1cc(Cl)cnc1F)N(CCc1c[nH]c2ccc(F)cc12)CC1CC1 [Example 403, 5′-Chloro-2′-fluoro-[3,3′]bipyridinyl-2-carboxylic acid cyclopropylmethyl-[2-(5-fluoro-1H-indol-3-yl)-ethyl]-amide] |
